According to patent US9949975B2, “Inhibitors of beta-secretase” (Vitae Pharmaceuticals, Inc., priority 2012, dated 2018):

molecular target: hERG channel (Homo sapiens (Human), UniProt Q12809); test: hERG-Channel Assay (Assay 3), whole-cell patch clamp; format: cell-based; details: HEK293 cells transfected with hERG, 35° C.
Text: HEK (human embryonic kidney) 293 cells were stably transfected with hERG cDNA.
Cells were superfused with a bath solution containing (mM): NaCl (137), KCl (4.0), MgCl2 (1.0), CaCl2 (1.8), Glucose (10), HEPES (10), pH 7.4 with NaOH. Patch pipettes were made from borosilicate glass tubing using a horizontal puller and filled with pipette solution containing (mM): K-aspartate (130), MgCl2 (5.0), EGTA (5.0), K2ATP (4.0), HEPES (10.0), pH 7.2 with KOH. Resistance of the microelectrodes was in the range between 2 and 5 MΩ.
Membrane currents were recorded using an EPC-10 patch clamp amplifier and PatchMaster software. hERG-mediated membrane currents were recorded at 35° C., using the whole-cell configuration of the patch-clamp technique. Transfected HEK293 cells were clamped at a holding potential of −60 mV and hERG-mediated inactivating tail currents were elicited using a pulse pattern with fixed amplitudes (activation/inactivation: 40 mV for 2000 ms; recovery: −120 mV for 2 ms; ramp to 40 mV in 2 ms; inactivating tail current: 40 mV for 50 ms) repeated at 15 s intervals. During each inter-pulse interval 4 pulses scaled down by a factor of 0.2 were recorded for a P/n leak subtraction procedure. Rs compensation was employed up to a level that safely allowed recording devoid of ringing.
The different concentrations of the test compound were applied sequentially on each of the different cells investigated. A steady state level of baseline current was measured for at least 6 sweeps prior to the application of the first test compound concentration.
The test compound was dissolved in DMSO to yield a master stock solution which was diluted further in DMSO to stock solutions needed for the lower concentrations. Final dilutions in extracellular buffer were prepared freshly from these stocks by a 1:1000 dilution step each before starting the experiments.
Peak current amplitudes were measured 3 ms after the ramp to +40 mV. For baseline and each concentration the peak currents of the three last sweeps before application of the next concentration were averaged. Residual currents (I/I0) were calculated for each cell as the fraction of actual average peak current and average baseline peak current. Results are presented as percent (%) inhibition (1−I/I0)*100% at 10 μM.

Chain of hERG channel (Q12809 whole entry): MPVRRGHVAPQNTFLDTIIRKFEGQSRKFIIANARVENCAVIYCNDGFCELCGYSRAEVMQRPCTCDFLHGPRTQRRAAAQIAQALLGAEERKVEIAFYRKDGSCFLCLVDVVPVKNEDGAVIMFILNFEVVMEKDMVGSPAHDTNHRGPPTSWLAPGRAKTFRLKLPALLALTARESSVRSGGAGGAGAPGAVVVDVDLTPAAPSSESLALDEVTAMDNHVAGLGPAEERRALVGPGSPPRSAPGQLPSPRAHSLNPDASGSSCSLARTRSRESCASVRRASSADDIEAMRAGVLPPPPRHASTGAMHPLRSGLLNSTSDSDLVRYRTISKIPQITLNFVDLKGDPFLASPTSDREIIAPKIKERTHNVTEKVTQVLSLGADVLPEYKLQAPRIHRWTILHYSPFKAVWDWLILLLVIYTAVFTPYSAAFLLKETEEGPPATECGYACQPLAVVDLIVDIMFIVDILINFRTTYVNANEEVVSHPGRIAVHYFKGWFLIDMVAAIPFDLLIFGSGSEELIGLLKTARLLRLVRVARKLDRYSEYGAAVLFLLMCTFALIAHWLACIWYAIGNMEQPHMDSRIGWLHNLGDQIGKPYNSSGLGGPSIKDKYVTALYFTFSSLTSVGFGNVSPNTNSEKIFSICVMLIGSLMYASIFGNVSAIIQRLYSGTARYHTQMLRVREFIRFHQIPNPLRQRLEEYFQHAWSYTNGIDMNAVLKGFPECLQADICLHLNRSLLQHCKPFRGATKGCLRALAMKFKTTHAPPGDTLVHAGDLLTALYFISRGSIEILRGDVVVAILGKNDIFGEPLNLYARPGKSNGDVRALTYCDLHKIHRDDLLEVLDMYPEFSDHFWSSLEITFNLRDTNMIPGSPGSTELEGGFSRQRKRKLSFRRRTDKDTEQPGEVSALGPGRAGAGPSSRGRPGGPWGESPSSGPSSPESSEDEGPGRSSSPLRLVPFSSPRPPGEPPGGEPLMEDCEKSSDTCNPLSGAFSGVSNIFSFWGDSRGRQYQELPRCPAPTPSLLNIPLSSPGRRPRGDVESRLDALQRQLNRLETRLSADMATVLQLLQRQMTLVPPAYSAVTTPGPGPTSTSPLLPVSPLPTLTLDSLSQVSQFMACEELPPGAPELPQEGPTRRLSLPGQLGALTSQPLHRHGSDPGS

SMILES | hERG % inhibition @ 10 μM (assay 3) [%]
CO[C@H]1[C@H](C)C[C@@]2(Cc3ccc(C#N)cc3[C@]23N=C(N)N(C[C@@H]2CCO2)C3=O)C[C@@H]1C (stereo in doubt) [Example 18] | 17
COC1CCC2(CC1)Cc1ccc(C#N)cc1C21N=C(N)N(CC2CCCO2)C1=O (stereo not drawn) [Comparison example drawing 13, reference compound] | 16
CC[C@@H]1C[C@]2(CC[C@H]1OC)Cc1ccc(C#N)cc1[C@]21N=C(N)N(Cc2ncccn2)C1=O [Example 1] | 8
CC[C@@H]1C[C@]2(CC[C@H]1OC)Cc1ccc(C#N)cc1[C@]21N=C(N)N(CC2CCOCC2)C1=O [Example 2] | 22
CC[C@@H]1C[C@]2(CC[C@H]1OC)Cc1ccc(C#N)cc1[C@]21N=C(N)N(CC(C)(C)F)C1=O [Example 3] | 9
CC[C@@H]1C[C@]2(CC[C@H]1OC)Cc1ccc(C#N)cc1[C@]21N=C(N)N(CC2(F)CCOCC2)C1=O [Example 4] | 0
CC[C@H]1C[C@@]2(CC[C@@H]1OC)Cc1ccc(C#N)cc1[C@]21N=C(N)N(C[C@H]2CCCO2)C1=O [Example 5] | 7
CO[C@H]1CC[C@@]2(Cc3ccc(C#N)cc3[C@]23N=C(N)N(Cc2ncccn2)C3=O)C[C@@H]1C [Example 6] | 35
COCCN1C(=O)[C@]2(N=C1N)c1cc(C#N)ccc1C[C@@]21CC[C@H](OC)[C@@H](C)C1 [Example 7] | 8
CO[C@H]1CC[C@@]2(Cc3ccc(C#N)cc3[C@]23N=C(N)N(CC2(C)COC2)C3=O)C[C@@H]1C [Example 8] | 16
CO[C@H]1CC[C@@]2(Cc3ccc(C#N)cc3[C@]23N=C(N)N(Cc2ccncn2)C3=O)C[C@@H]1C [Example 9] | 16
CO[C@H]1[C@H](C)C[C@@]2(Cc3ccc(C#N)cc3[C@]23N=C(N)N(Cc2ncc(F)cn2)C3=O)C[C@@H]1C [Example 10] | 38
CO[C@H]1[C@H](C)C[C@@]2(Cc3ccc(C#N)cc3[C@]23N=C(N)N(CC2(C)COC2)C3=O)C[C@@H]1C [Example 11] | 6
CO[C@H]1[C@H](C)C[C@@]2(Cc3ccc(C#N)cc3[C@]23N=C(N)N(C2COC2)C3=O)C[C@@H]1C [Example 12] | 11
CO[C@H]1[C@H](C)C[C@@]2(Cc3ccc(C#N)cc3[C@]23N=C(N)N(CC2COC2)C3=O)C[C@@H]1C [Example 13] | 18
CO[C@H]1[C@H](C)C[C@@]2(Cc3ccc(C#N)cc3[C@]23N=C(N)N(C[C@H]2CCCO2)C3=O)C[C@@H]1C [Example 14] | 20
CO[C@H]1[C@H](C)C[C@@]2(Cc3ccc(C#N)cc3[C@]23N=C(N)N(C[C@@H]2CCCO2)C3=O)C[C@@H]1C [Example 15] | 11
CO[C@H]1[C@H](C)C[C@@]2(Cc3ccc(C#N)cc3[C@]23N=C(N)N(CC2CCOCC2)C3=O)C[C@@H]1C [Example 16] | 6
CO[C@H]1[C@H](C)C[C@@]2(Cc3ccc(C#N)cc3[C@]23N=C(N)N(CC(C)(C)F)C3=O)C[C@@H]1C [Example 17] | 12
CO[C@H]1[C@H](C)C[C@@]2(Cc3ccc(C#N)cc3[C@]23N=C(N)N(CCC2COC2)C3=O)C[C@@H]1C [Example 19] | 8
CO[C@H]1[C@H](C)C[C@@]2(Cc3ccc(C#N)cc3[C@]23N=C(N)N(CC2(C)OCCO2)C3=O)C[C@@H]1C [Example 20] | 8
CO[C@H]1[C@H](C)C[C@@]2(Cc3ccc(C#N)cc3[C@]23N=C(N)N(C[C@@H]2COCCO2)C3=O)C[C@@H]1C [Example 21] | 24
CO[C@H]1[C@H](C)C[C@@]2(Cc3ccc(C#N)cc3[C@]23N=C(N)N(C[C@H]2COCCO2)C3=O)C[C@@H]1C [Example 22] | 9
CO[C@H]1[C@H](C)C[C@@]2(Cc3ccc(C#N)cc3[C@]23N=C(N)N(CC2(F)CCOCC2)C3=O)C[C@@H]1C [Example 23] | 16
CO[C@H]1[C@H](C)C[C@@]2(Cc3ccc(C#N)cc3[C@]23N=C(N)N(Cc2ccncn2)C3=O)C[C@@H]1C [Example 24] | 23
CO[C@H]1[C@H](C)C[C@@]2(Cc3ccc(F)cc3[C@]23N=C(N)N(C[C@@H]2CCOC2)C3=O)C[C@@H]1C [Example 25] | 10
CC[C@@H]1C[C@@]2(Cc3ccc(C#N)cc3[C@]23N=C(N)N(CC(C)(C)F)C3=O)C[C@H](C)[C@H]1OC [Example 26] | 8
CO[C@H]1CC[C@@]2(Cc3ccc(C#N)cc3[C@]23N=C(N)N(CC2COCCO2)C3=O)C[C@@H]1C (stereo partly drawn) [Example 27] | 19
CC[C@@H]1C[C@]2(CC[C@H]1OC)Cc1ccc(C#N)cc1[C@]21N=C(N)N(C[C@H]2COCCO2)C1=O [Example 28] | 9
CO[C@H]1[C@H](C)C[C@@]2(Cc3ccc(F)cc3[C@]23N=C(N)N(CC2(C)OCCO2)C3=O)C[C@@H]1C [Example 29] | 7
